Reference: patent US20050282757A1, “Peptide boronic acid compounds useful in anticoagulation” (Trigen Limited, priority 2002, published 2005)
Values after ≈ are worked out from the molar mass of the structure shown. Values joined by “and” are separate entries in the source; they are usually repeats but may differ in a detail not shown here. Equal entries are not always repeated. “Also recorded” adds a separate entry of the source.

Legend:
thrombin time [1] = assay: Oral absorption in rat, thrombin time (Example 43); type: in vivo, male Wistar rats; settings: 20 mg/kg oral gavage
Procedure: The procedure of Example 42 was followed.
The per-oral studies were performed using male Wistar rats, approximately 8 weeks of age and weighing between 250 and 300 g.
Food was withheld overnight prior to dosing and returned approximately 2 hours post-dose. Water was available adlibitum.
Each animal received a single administration of control or test article by oral gavage, using a constant dose volume of 4 mL/kg.
Individual dose volumes were based on individual body weights, obtained on the day of dosing.
(§1) Approximately 0.6 mL of blood was collected via a tail vein into 3.8% tri sodium citrate tubes approximately 48 hours prior to dosing and again at 0.5, 1, 2, 4 and 8 hours post-dose.
(§2) Plasma was prepared by centrifugation at […] for 10 minutes at 4° C. Plasma was stored frozen (nominally −20° C.) prior to analysis in an automated coagulometer.

thrombin time [2] = assay: Intraduodenal absorption in rat, thrombin time (Examples 42 and 44); type: in vivo, male Wistar rats; set-up: Mean increase in thrombin time / Thrombin time increase: unit not given here; settings: for Group mean thrombin time (s ± sd): 20 mg/kg intraduodenal
Procedure: • Place 10 mg of the relevant compound in an Eppendorf cup • Add 0.5 mL ethanol and shake for 10 minutes • Sonicate for 10 minutes • Add 1.5 mL of buffer • Shake for additional 15 minutes • Resulting target concentration: 5 mg/mL B. Intraduodenal Studies
The intraduodenal studies were performed using male Wistar rats, approximately 8 weeks of age and weighing between 250 and 300 g.
Food was withheld overnight prior to dosing and returned approximately 2 hours post-dose. Water was available ad libitum.
Animals were anaesthetised using gaseous halothane. A small incision was made in the abdomen and the duodenum located. Each animal received a single administration of control or test article by injection directly into the duodenum, using a constant dose volume of 4 mL/kg. Following administration the incision was closed using surgical staples.
Individual dose volumes were based on individual body weights, obtained on the day of dosing. Treatments employed for the study were as follows:
as §1, §2
The thrombin times determined in example 42 were analysed to determine the standard deviation for increase in thrombin time, expressed as a percentage of the mean value (this is sometimes called the ‘coefficient of variation’).

thrombin time and APTT = assay: Oral administration in dog, PK/PD (Example 45)
Procedure: Three female and three male dogs were used for each leg of the study. The weight range of the dogs was 8-18 kg.
The PD was measured as thrombin time and APTT using an automated coagulometer. Plasma concentrations were measured using an LCMS/MS method.
The dose was tailored on an individual basis for each dog.

[3] = Maximum aqueous solubility by UV after shaking in water at 37° C.; type: physicochemical; settings: read-out: Solubility when dissolved at 50 mg/ml
[4] = Stability in simulated gastric fluid (Example 51); type: in vitro ADME; settings: 37° C.
Procedure: Approximately 2.5 mg of the compound is dissolved in 50 ml gastric fluid (37° C., according to BP with pepsin, an aliquot is transferred into an HPLC-vial and analysed immediately (time period =0). The aliquots for further time periods in HPLC-vials are stored in an autosampler at 37° C. […]

[5] = Hydrolysis under HPLC assay conditions; type: physicochemical; settings: acid conditions of an HPLC assay / HPLC sample preparation
Excerpt: It has been discovered that TRI 50b tends to hydrolyse.

[6] = individual rats dosed intraduodenally, in s
[7] = gastric juice 0 min, initial set to 100

COCCC[C@H](NC(=O)[C@@H]1CCCN1C(=O)[C@@H](Cc1ccccc1)NC(=O)OCc1ccccc1)B([O-])O.[K+] [Potassium Salt of TRI50C]
Group mean thrombin times (s ± sd) (thrombin time [1]; 0.5 hour): 24.7 ± 2.18 s | Group mean thrombin times (s ± sd) (thrombin time [1]; 1 hour): 24.1 ± 1.87 s | Group mean thrombin times (s ± sd) (thrombin time [1]; 2 hour): 22.9 ± 3.29 s | Group mean thrombin times (s ± sd) (thrombin time [1]; 4 hour): 23.2 ± 1.24 s | Group mean thrombin times (s ± sd) (thrombin time [1]; 8 hour): 23.8 ± 1.79 s | Group mean thrombin times (s ± sd) (thrombin time [1]; −48 hour (pre-dose)): 22.0 ± 1.40 s | Group mean thrombin time (s ± sd) (thrombin time [2]; 0.5 hour): 26.5 ± 3.64 s | Group mean thrombin time (s ± sd) (thrombin time [2]; 1 hour): 24.4 ± 3.35 s | Group mean thrombin time (s ± sd) (thrombin time [2]; 2 hour): 23.2 ± 0.83 s | Group mean thrombin time (s ± sd) (thrombin time [2]; 4 hour): 23.2 ± 2.36 s | Group mean thrombin time (s ± sd) (thrombin time [2]; 8 hour): 21.6 ± 0.70 s | Group mean thrombin time (s ± sd) (thrombin time [2]; −48 hour (pre-dose)): 20.0 ± 1.92 s

COCCC[C@H](NC(=O)[C@@H]1CCCN1C(=O)[C@@H](Cc1ccccc1)NC(=O)OCc1ccccc1)B(O)O [TRI 50c, Cbz-(R)-Phe-(S)-Pro-(R)-Mpg-B(OH)2]
absorption as estimated by dynamic response (TT) (thrombin time and APTT): Two animals failed to significantly absorb TRI 50c | time of peak thrombin time post dose (thrombin time and APTT): 1.5 h | mean thrombin clotting time at peak (C max) (thrombin time and APTT; base line 15 seconds (calcium salt), 15.4 seconds (TRI 50c)): 34.2 s | tolerance (thrombin time and APTT; enterically coated gelatine capsules): tolerated well with no adverse events; also recorded: well tolerated orally | Group mean thrombin times (s ± sd) (thrombin time [1]; 0.5 hour): 26.8 ± 1.96 s | Group mean thrombin times (s ± sd) (thrombin time [1]; 1 hour): 23.3 ± 3.68 s | Group mean thrombin times (s ± sd) (thrombin time [1]; 2 hour): 23.9 ± 2.25 s | Group mean thrombin times (s ± sd) (thrombin time [1]; 4 hour): 23.1 ± 2.70 s | Group mean thrombin times (s ± sd) (thrombin time [1]; 8 hour): 25.1 ± 0.33 s | Group mean thrombin times (s ± sd) (thrombin time [1]; −48 hour (pre-dose)): 22.9 ± 2.28 s | Group mean thrombin time (s ± sd) (thrombin time [2]; 0.5 hour): 42.1 ± 19.54 s | Group mean thrombin time (s ± sd) (thrombin time [2]; 1 hour): 27.5 ± 9.42 s | Group mean thrombin time (s ± sd) (thrombin time [2]; 2 hour): 23.5 ± 6.40 s | Group mean thrombin time (s ± sd) (thrombin time [2]; 4 hour): 21.8 ± 2.33 s | Group mean thrombin time (s ± sd) (thrombin time [2]; 8 hour): 21.5 ± 2.67 s | Group mean thrombin time (s ± sd) (thrombin time [2]; −48 hour (pre-dose)): 21.3 ± 2.69 s | Mean increase in thrombin time (thrombin time [2]; 0.5 h minus 0 h, intraduodenal): 20.26 | Thrombin time, 0 h (thrombin time [2]; [6]): 23.70 and 23.10 and 16.85 and 21.67 | Thrombin time, 0.5 h (thrombin time [2]; [6]): 40.02 and 40.20 and 23.60 and 62.55 | Thrombin time increase (thrombin time [2]; individual rats, 0.5 h minus 0 h): 16.32 and 17.10 and 6.75 and 40.88 | solubility [3]: 8 mM (≈ 4200 µg/mL)

COCCC[C@H](NC(=O)[C@@H]1CCCN1C(=O)[C@@H](Cc1ccc(F)cc1)NC(=O)OCc1ccccc1)B([O-])O.[Na+] [TRIf monosodium salt]
results, peak at rt 14.5 min [4, 7]: 100.0 peak-area-% | results, peak at rt 17.3 min [4, 7]: 100.0 peak-area-% | results, peak at rt […] [4, 7]: 100.0 peak-area-% | results, peak at rt 14.5 min ([4]; gastric juice 35 min): 89.6 peak-area-% | results, peak at rt 17.3 min ([4]; gastric juice 35 min): 99.1 peak-area-% | results, peak at rt […] ([4]; gastric juice 35 min): 101.4 peak-area-% | results, peak at rt 14.5 min ([4]; gastric juice 70 min): 84.6 peak-area-% | results, peak at rt 17.3 min ([4]; gastric juice 70 min): 101.8 peak-area-% | results, peak at rt […] ([4]; gastric juice 70 min): 101.1 peak-area-% | results, peak at rt 14.5 min ([4]; gastric juice 105 min): 94.2 peak-area-% | results, peak at rt 17.3 min ([4]; gastric juice 105 min): 100.3 peak-area-% | results, peak at rt […] ([4]; gastric juice 105 min): 97.7 peak-area-% | results, peak at rt 14.5 min ([4]; gastric juice 140 min): 93.9 peak-area-% | results, peak at rt 17.3 min ([4]; gastric juice 140 min): 91.4 peak-area-% | results, peak at rt […] ([4]; gastric juice 140 min): 94.6 peak-area-% | results, peak at rt 14.5 min ([4]; gastric juice 175 min): 94.9 peak-area-% | results, peak at rt 17.3 min ([4]; gastric juice 175 min): 97.7 peak-area-% | results, peak at rt […] ([4]; gastric juice 175 min): 98.6 peak-area-% | results, peak at rt 14.5 min ([4]; gastric juice 210 min): 98.1 peak-area-% | results, peak at rt 17.3 min ([4]; gastric juice 210 min): 94.1 peak-area-% | results, peak at rt […] ([4]; gastric juice 210 min): 94.4 peak-area-%

COCCC[C@H](NC(=O)[C@@H]1CCCN1C(=O)[C@@H](Cc1ccccc1)NC(=O)OCc1ccccc1)B1OC(C)(C)C(C)(C)O1 [TRI 50b, Cbz-(R)-Phe-Pro-BoroMpg-OPinacol]
stability under HPLC assay conditions [5]: converted to the acid form with a short half life
